# Measured values taken from ChEMBL document CHEMBL1667820, “Synthesis and antitubercular evaluation of novel substituted aryl and thiophenyl tethered dihydro-6H-quinolin-5-ones” (2011).
# System: Mycobacterium tuberculosis
# Test: Antimycobacterial activity against Mycobacterium tuberculosis H37Rv by agar dilution method
# Format: functional
row,Compound,MIC [µg/mL]
1,O=C1CCCc2nc(-c3ccccc3)ccc21,12.5
2,Cc1ccc(-c2ccc3c(n2)CCCC3=O)cc1,12.5
3,COc1ccc(-c2ccc3c(n2)CCCC3=O)cc1,12.5
4,O=C1CCCc2nc(-c3cccs3)ccc21,12.5
5,O=C1CCCc2nc(-c3ccc(Cl)s3)ccc21,6.25
6,O=C1CCCc2nc(-c3ccc(Br)s3)ccc21,6.25
7,CC1(C)CC(=O)c2ccc(-c3ccccc3)nc2C1,12.5
8,Cc1ccc(-c2ccc3c(n2)CC(C)(C)CC3=O)cc1,6.25
9,COc1ccc(-c2ccc3c(n2)CC(C)(C)CC3=O)cc1,12.5
10,CC1(C)CC(=O)c2ccc(-c3cccs3)nc2C1,6.25
11,CC1(C)CC(=O)c2ccc(-c3ccc(Cl)s3)nc2C1,3.13
12,CC1(C)CC(=O)c2ccc(-c3ccc(Br)s3)nc2C1,3.13
13,O=C1c2ccc(-c3ccccc3)nc2CCC1(CO)CO,> 25
14,Cc1ccc(-c2ccc3c(n2)CCC(CO)(CO)C3=O)cc1,> 25
15,COc1ccc(-c2ccc3c(n2)CCC(CO)(CO)C3=O)cc1,> 25
16,O=C1c2ccc(-c3cccs3)nc2CCC1(CO)CO,> 25
17,O=C1c2ccc(-c3ccc(Cl)s3)nc2CCC1(CO)CO,> 25
18,O=C1c2ccc(-c3ccc(Br)s3)nc2CCC1(CO)CO,> 25
19,CC[C@@H](CO)NCCN[C@@H](CC)CO [ETHAMBUTOL],3.13
20,NNC(=O)c1ccncc1 [ISONIAZID],0.1
21,NC(=O)c1cnccn1 [PYRAZINAMIDE],50
